These results are taken from the RepoRT retention time repository (doi:10.1021/es4044374).

Each structure is given as a SMILES string.

This series in a line: RP, Waters XBridge C18, 50 × 2.1 mm, 3.5 µm, 30 °C, 0.2 mL/min, estimated dead time 0.55 min; A: water + 0.1% formic acid, pH 3; B: methanol + 0.1% formic acid, pH 3; gradient (min/%B) 0/10 4/50 17/95 25/95 25.1/10 30/10. Particulars: stereoisomer not certain.
Consider `COc1ccc2c(c1)C13CCCCC1C(C2)N(C)CC3` (centres undefined) [Dextromethorphan], for which the LC retention time is 6.6 min.
For `Cn1c(=O)c2c(ncn2C)n(C)c1=O` [Caffeine], the LC retention time was 4 min.
Turning to `CCNc1nc(NC(C)C)nc(OC)n1` [Atraton], the LC retention time was 5.7 min.
Take `COc1nc(C)nc(N)n1` [2-Methyl-4-amino-6-methoxy-s-triazine]: the LC retention time was 1.7 min.
Regarding `CC(C1CC1)C(O)(Cn1cncn1)c1ccc(Cl)cc1` (centres undefined) [Cyproconazole], the LC retention time was 11.5 min.
For `CC(=O)Nc1ccc(S(=O)(=O)Nc2nccs2)cc1` [N4-Acetylsulfathiazole] the value was 4.1 min.
Regarding `COC=C(C(=O)O)c1ccccc1Oc1cc(Oc2ccccc2C#N)ncn1` [Azoxystrobin (free acid)], the LC retention time is 8.8 min.
Consider `N#Cc1cc(Br)c(O)c(Br)c1` [Bromoxynil], for which the LC retention time was 8.3 min.
Turning to `O=C1NS(=O)(=O)c2ccccc21` [Saccharin], the LC retention time is 2.5 min.
In the case of `Nc1ccn(C2OC(CO)C(O)C2(F)F)c(=O)n1` (centres undefined) [Gemcitabine], the LC retention time is 1 min.
Regarding `CC(C)N(Cc1ccccc1)C(=O)C(C)(C)C` [Tebutam], the LC retention time was 11.7 min.
For `CNC(C)Cc1ccccc1` (centres undefined) [Methamphetamine] the value was 3.7 min; for `O=C(NCCN1CCOCC1)c1ccc(Cl)cc1` [Moclobemide], 4.5 min.
As to `CCCc1nc2c(C)cc(-c3nc4ccccc4n3C)cc2n1Cc1ccc(-c2ccccc2C(=O)O)cc1` [Telmisartan], the LC retention time is 9.2 min.
For `CC(=O)Nc1c(C)n(C)n(-c2ccccc2)c1=O` [4-Acetamidoantipyrine] the value was 3.7 min; for `CC(C)c1ccc(NC(=O)N(C)C)cc1` [Isoproturon], 8.7 min.
As for `CC(C)NCC(O)COc1ccc(CC(N)=O)cc1` (centres undefined) [Atenolol], the LC retention time was 2 min.
Under `NS(=O)(=O)c1cc(C(=O)O)c(NCc2ccco2)cc1Cl` [Furosemide] stands 6.8 min; under `O=S(=O)(O)c1ccc2ccccc2c1` [2-Naphthalenesulfonic acid], 5.2 min.
